In US10364247B2, “Preparation and use of novel protein kinase inhibitors” (Ruijin Hospital Affiliated to Shanghai Jiao Tong University …, priority 2015, dated 2019):

Experiments:
Experiment in all cases: KINOMEscan competition binding
[1] = biological target: ABL1(F317L)-nonphosphorylated (Homo sapiens, UniProt P00519, F317L); conditions: read-out: Percent Control
Method: (§1) KINOMEscan™ is based on a competition binding assay that quantitatively measures the ability of a compound to compete with an immobilized, active-site directed ligand (Fabian et al. (2005) Nat. Biotechnol. 23, 329; Karaman et al. (2008) Nat. Biotechnol. 26, 127). The compound was screened at 10 μM, and results for primary screen binding interactions are reported as ‘% Ctrl’, where lower numbers indicate stronger hits. The results for kinases targets with a % Ctrl less than 30 can be seen in Table 2.

ABL1-nonphosphorylated = ABL1-nonphosphorylated (Homo sapiens, UniProt P00519); conditions: read-out: Percent Control
Method: as §1

ASK2 = biological target: T1, ASK2 (Homo sapiens, UniProt O95382); conditions: ASK2 (Entrez MAP3K6), read-out: Percent Control
T1 construct: purchased KINOMEscan (screening service)
Method: as §1

BRAF = BRAF (Homo sapiens, UniProt P15056); conditions: read-out: Percent Control
Method: as §1

CIT = biological target: T2, CIT (Homo sapiens, UniProt O14578); conditions: read-out: Percent Control
T2 construct: purchased KINOMEscan (panel service)
Method: as §1

CSF1R = biological target: T3, CSF1R (Homo sapiens, UniProt P07333); conditions: read-out: Percent Control
T3 construct: purchased KINOMEscan (panel service)
Method: as §1

DDR2 = biological target: T4, DDR2 (Homo sapiens, UniProt Q16832); conditions: read-out: Percent Control
T4 construct: purchased KINOMEscan (screening service)
Method: as §1

EPHA4 = EPHA4 (Homo sapiens, UniProt P54764); conditions: read-out: Percent Control
Method: as §1

EPHA6 = EPHA6 (Homo sapiens, UniProt Q9UF33); conditions: read-out: Percent Control
Method: as §1

EPHA7 = EPHA7 (Homo sapiens, UniProt Q15375); conditions: read-out: Percent Control
Method: as §1

EPHB2 = EPHB2 (Homo sapiens, UniProt P29323); conditions: read-out: Percent Control
Method: as §1

EPHB4 = EPHB4 (Homo sapiens, UniProt P54760); conditions: read-out: Percent Control
Method: as §1

ERBB4 = ERBB4 (Homo sapiens, UniProt Q15303); conditions: read-out: Percent Control
Method: as §1

FLT3(D835Y) = biological target: T5, FLT3(D835Y) (Homo sapiens, UniProt P36888, D835Y); conditions: read-out: Percent Control
T5 construct: purchased KINOMEscan (screening service)
Method: as §1

FLT3(R834Q) = biological target: T6, FLT3(R834Q) (Homo sapiens, UniProt P36888, R834Q); conditions: read-out: Percent Control
T6 construct: purchased KINOMEscan (screening service)
Method: as §1

[2] = biological target: T7, JAK2(JH1domain-catalytic) (Homo sapiens, UniProt O60674); conditions: read-out: Percent Control
T7 construct: JAK2(JH1domain-catalytic)
Method: as §1

[3] = biological target: T8, JAK3(JH1domain-catalytic) (Homo sapiens, UniProt P52333); conditions: read-out: Percent Control
T8 construct: JAK3(JH1domain-catalytic)
Method: as §1

JNK2 = JNK2 (Homo sapiens, UniProt P45984); conditions: JNK2 (Entrez MAPK9), read-out: Percent Control
Method: as §1

KIT(V559D) = KIT(V559D) (Homo sapiens, UniProt P10721, V559D); conditions: read-out: Percent Control
Method: as §1

LCK = biological target: T9, LCK (Homo sapiens, UniProt P06239); conditions: read-out: Percent Control
T9 construct: purchased KINOMEscan (panel service)
Method: as §1

LYN = biological target: T10, LYN (Homo sapiens, UniProt P07948); conditions: read-out: Percent Control
T10 construct: purchased KINOMEscan (panel service)
Method: as §1

MAP3K1 = biological target: T11, MAP3K1 (Homo sapiens, UniProt Q13233); conditions: read-out: Percent Control
T11 construct: purchased KINOMEscan (screening platform)
Method: as §1

MAP3K15 = biological target: T12, MAP3K15 (Homo sapiens, UniProt Q6ZN16); conditions: read-out: Percent Control
T12 construct: purchased KINOMEscan (screening service)
Method: as §1

MAP3K3 = MAP3K3 (Homo sapiens, UniProt Q99759); conditions: read-out: Percent Control
Method: as §1

MINK = MINK (Homo sapiens, UniProt Q8N4C8); conditions: MINK (Entrez MINK1), read-out: Percent Control
Method: as §1

NEK4 = biological target: T13, NEK4 (Homo sapiens, UniProt P51957); conditions: read-out: Percent Control
T13 construct: purchased KINOMEscan (screening platform)
Method: as §1

PRKCQ = biological target: T14, PRKCQ (Homo sapiens, UniProt Q04759); conditions: read-out: Percent Control
T14 construct: purchased KINOMEscan (screening platform)
Method: as §1

SIK = SIK (Homo sapiens, UniProt P57059); conditions: SIK (Entrez SIK1), read-out: Percent Control
Method: as §1

SIK2 = biological target: T15, SIK2 (Homo sapiens, UniProt Q9H0K1); conditions: read-out: Percent Control
T15 construct: purchased KINOMEscan (screening service)
Method: as §1

SLK = SLK (Homo sapiens, UniProt Q9H2G2); conditions: read-out: Percent Control
Method: as §1

SRC = biological target: T16, SRC (Homo sapiens, UniProt P12931); conditions: read-out: Percent Control
T16 construct: purchased KINOMEscan (panel service)
Method: as §1

STK36 = STK36 (Homo sapiens, UniProt Q9NRP7); conditions: read-out: Percent Control
Method: as §1

TAOK2 = biological target: T17, TAOK2 (Homo sapiens, UniProt Q9UL54); conditions: read-out: Percent Control
T17 construct: purchased KINOMEscan (screening service)
Method: as §1

TAOK3 = biological target: T18, TAOK3 (Homo sapiens, UniProt Q9H2K8); conditions: read-out: Percent Control
T18 construct: purchased KINOMEscan (screening platform)
Method: as §1

TIE1 = TIE1 (Homo sapiens, UniProt P35590); conditions: read-out: Percent Control
Method: as §1

TIE2 = TIE2 (Homo sapiens, UniProt Q02763); conditions: TIE2 (Entrez TEK)
Method: as §1

TNK1 = biological target: T19, TNK1 (Homo sapiens, UniProt Q13470); conditions: read-out: Percent Control
T19 construct: purchased KINOMEscan (screening service)
Method: as §1

p38-alpha = biological target: T20, p38-alpha (Homo sapiens, UniProt Q16539); conditions: p38-alpha (Entrez MAPK14), read-out: Percent Control
T20 construct: purchased KINOMEscan (panel service)
Method: as §1

MINK, sequence (Q8N4C8 whole entry): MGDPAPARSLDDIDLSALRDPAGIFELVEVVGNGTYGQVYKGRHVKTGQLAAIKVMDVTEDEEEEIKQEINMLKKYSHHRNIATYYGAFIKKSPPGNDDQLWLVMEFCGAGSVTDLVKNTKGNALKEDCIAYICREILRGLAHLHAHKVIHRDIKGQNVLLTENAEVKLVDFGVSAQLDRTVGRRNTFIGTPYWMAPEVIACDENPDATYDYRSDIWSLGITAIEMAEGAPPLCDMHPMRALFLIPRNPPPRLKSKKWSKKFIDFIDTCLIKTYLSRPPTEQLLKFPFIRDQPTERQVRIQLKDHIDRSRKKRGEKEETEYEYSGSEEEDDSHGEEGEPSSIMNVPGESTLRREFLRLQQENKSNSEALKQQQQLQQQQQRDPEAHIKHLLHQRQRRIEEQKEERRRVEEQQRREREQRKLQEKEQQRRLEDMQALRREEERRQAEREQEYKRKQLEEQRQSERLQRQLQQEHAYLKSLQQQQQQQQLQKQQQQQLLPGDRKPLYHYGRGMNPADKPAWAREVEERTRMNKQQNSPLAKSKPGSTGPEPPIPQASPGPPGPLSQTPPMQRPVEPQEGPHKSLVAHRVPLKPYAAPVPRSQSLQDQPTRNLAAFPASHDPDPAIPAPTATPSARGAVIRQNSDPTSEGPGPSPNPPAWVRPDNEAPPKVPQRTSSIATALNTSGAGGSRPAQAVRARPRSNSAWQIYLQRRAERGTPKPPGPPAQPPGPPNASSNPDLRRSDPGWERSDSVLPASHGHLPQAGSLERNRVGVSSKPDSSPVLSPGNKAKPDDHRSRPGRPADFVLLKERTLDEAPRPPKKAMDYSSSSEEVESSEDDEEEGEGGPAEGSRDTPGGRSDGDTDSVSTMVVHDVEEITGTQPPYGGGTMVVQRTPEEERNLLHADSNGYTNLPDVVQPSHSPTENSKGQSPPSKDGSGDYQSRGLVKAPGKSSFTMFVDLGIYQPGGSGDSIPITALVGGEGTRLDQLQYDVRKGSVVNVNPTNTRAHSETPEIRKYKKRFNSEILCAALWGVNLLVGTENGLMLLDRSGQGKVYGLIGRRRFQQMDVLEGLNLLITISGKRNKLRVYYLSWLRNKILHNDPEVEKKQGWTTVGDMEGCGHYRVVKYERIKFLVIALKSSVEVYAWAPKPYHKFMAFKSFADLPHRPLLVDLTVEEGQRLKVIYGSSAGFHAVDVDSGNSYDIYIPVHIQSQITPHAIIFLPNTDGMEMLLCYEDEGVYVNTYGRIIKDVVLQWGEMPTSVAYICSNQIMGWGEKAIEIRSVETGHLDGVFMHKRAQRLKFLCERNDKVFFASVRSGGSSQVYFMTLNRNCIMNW
ERBB4, sequence (Q15303 26-1308): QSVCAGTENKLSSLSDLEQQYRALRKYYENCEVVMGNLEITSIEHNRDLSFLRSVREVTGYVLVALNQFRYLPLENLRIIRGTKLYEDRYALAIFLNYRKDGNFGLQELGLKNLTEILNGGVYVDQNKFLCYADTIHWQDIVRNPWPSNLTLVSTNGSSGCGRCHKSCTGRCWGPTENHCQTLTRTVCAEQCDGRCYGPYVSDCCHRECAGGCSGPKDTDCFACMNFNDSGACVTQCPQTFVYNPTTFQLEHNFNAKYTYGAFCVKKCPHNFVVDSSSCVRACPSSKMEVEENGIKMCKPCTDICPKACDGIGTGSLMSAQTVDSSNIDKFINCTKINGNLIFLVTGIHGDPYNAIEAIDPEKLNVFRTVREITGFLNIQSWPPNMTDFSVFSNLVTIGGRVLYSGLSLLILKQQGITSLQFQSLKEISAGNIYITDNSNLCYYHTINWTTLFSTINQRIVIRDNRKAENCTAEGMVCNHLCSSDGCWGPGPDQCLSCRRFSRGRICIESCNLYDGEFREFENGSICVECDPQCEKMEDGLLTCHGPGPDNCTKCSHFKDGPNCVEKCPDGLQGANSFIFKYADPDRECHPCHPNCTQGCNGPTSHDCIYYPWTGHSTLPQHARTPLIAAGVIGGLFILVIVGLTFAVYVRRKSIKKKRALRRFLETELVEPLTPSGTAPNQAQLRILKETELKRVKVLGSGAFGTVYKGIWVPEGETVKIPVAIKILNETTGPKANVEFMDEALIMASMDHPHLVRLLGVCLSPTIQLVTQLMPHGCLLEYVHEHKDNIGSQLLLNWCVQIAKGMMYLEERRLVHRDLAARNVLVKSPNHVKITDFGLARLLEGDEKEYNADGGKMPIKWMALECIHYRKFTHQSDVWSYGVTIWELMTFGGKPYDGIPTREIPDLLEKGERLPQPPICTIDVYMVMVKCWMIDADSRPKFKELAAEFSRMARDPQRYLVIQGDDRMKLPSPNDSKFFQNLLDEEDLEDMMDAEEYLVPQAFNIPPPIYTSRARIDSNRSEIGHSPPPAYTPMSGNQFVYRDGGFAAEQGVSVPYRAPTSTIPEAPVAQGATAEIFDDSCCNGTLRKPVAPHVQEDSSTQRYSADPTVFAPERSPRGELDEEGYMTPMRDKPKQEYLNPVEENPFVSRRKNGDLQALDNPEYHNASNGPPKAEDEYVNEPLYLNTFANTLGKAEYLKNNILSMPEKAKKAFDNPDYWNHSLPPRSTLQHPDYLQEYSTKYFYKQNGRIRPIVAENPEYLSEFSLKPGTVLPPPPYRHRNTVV
T7 sequence (O60674 849-1124 limits assumed): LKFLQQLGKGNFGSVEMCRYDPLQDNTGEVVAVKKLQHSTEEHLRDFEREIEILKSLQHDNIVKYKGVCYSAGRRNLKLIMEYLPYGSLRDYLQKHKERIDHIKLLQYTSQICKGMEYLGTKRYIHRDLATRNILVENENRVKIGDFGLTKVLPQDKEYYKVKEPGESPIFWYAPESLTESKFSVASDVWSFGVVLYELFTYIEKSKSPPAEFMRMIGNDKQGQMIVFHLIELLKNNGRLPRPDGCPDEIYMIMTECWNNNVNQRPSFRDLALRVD
ABL1(F317L)-nonphosphorylated, sequence (P00519 whole entry F317L): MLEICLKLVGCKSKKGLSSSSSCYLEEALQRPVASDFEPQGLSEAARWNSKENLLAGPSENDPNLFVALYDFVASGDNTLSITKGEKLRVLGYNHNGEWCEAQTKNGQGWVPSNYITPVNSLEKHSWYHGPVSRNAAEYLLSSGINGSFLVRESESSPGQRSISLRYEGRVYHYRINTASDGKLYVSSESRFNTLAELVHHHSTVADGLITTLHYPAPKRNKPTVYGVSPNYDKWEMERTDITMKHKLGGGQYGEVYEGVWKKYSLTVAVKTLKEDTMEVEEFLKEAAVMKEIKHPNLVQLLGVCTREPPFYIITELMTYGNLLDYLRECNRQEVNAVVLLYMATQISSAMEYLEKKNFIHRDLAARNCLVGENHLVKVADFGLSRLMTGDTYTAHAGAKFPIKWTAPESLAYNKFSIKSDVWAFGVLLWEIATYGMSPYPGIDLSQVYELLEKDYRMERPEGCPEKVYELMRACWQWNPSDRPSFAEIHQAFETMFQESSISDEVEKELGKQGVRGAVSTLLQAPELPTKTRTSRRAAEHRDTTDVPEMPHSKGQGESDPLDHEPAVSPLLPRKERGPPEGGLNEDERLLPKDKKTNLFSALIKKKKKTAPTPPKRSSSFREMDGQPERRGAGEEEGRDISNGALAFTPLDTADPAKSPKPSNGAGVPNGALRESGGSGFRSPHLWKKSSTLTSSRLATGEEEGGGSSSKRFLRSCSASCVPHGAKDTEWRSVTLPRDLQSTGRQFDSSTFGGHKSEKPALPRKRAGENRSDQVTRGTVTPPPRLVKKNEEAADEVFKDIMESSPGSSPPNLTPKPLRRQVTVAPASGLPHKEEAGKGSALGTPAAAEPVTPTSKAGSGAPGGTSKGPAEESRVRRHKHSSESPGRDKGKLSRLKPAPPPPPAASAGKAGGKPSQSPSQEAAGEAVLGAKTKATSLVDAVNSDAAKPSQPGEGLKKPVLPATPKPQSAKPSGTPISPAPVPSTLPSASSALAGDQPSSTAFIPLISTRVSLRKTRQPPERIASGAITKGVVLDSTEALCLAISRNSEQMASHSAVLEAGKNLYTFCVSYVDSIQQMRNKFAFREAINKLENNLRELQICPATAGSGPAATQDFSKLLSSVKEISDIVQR
SIK, sequence (P57059 whole entry): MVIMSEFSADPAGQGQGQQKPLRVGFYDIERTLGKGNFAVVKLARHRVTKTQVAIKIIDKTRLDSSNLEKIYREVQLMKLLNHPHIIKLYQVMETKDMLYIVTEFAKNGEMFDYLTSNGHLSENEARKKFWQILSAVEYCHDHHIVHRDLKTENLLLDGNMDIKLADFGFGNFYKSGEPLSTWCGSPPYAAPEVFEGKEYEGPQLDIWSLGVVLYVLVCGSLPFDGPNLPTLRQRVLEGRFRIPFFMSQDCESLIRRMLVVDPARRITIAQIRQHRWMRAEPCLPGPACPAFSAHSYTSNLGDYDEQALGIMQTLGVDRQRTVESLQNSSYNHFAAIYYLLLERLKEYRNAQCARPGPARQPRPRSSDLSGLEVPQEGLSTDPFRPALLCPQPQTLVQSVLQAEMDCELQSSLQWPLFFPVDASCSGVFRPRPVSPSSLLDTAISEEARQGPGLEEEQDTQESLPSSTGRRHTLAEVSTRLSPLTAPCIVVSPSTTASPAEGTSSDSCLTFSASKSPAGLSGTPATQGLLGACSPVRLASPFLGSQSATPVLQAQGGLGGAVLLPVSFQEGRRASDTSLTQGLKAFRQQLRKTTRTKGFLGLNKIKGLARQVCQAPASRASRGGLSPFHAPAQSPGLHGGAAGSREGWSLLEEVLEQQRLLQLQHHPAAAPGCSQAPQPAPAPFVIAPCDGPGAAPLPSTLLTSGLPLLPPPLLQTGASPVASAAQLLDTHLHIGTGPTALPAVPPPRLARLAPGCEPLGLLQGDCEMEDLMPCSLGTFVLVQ
ABL1-nonphosphorylated, sequence (P00519 whole entry): as the sequence (P00519 whole entry F317L) above, with L317F counted along it

**Q.** Cc1ccc(Nc2ncc3c(n2)N(C)CN(c2cc(NC(=O)c4cccc(C(F)(F)F)c4)ccc2C)C3)cn1 [IA-9, N-(4-methyl-3-(1-methyl-7-((6-methylpyridin-3-yl)amino)-1,4-dihydropyrimido[4,5-d]pyrimidin-3(2H)-yl)phenyl)-3-(trifluoromethyl)benzamide] was tested. Which remaining binding at 10 µM [1] did it give?
**A.** 0%

**Q.** What about the remaining binding at 10 µM (ABL1-nonphosphorylated) of the same molecule?
**A.** 0.3%

**Q.** And the remaining binding at 10 µM (ASK2)?
**A.** 7%

**Q.** And the remaining binding at 10 µM (BRAF)?
**A.** 0.5%

**Q.** And the remaining binding at 10 µM (CIT)?
**A.** 0.1%

**Q.** And the remaining binding at 10 µM (CSF1R)?
**A.** 0.15%

**Q.** And the remaining binding at 10 µM (DDR2)?
**A.** 9.1%

**Q.** And the remaining binding at 10 µM (EPHA4)?
**A.** 0%

**Q.** And the remaining binding at 10 µM (EPHA6)?
**A.** 0%

**Q.** What about the remaining binding at 10 µM (EPHA7) of the same molecule?
**A.** 0.55%

**Q.** And the remaining binding at 10 µM (EPHB2)?
**A.** 0%

**Q.** What about the remaining binding at 10 µM (EPHB4) of the same molecule?
**A.** 0%

**Q.** And the remaining binding at 10 µM (ERBB4)?
**A.** 0%

**Q.** What about the remaining binding at 10 µM (FLT3(D835Y)) of the same molecule?
**A.** 9%

**Q.** What about the remaining binding at 10 µM (FLT3(R834Q)) of the same molecule?
**A.** 20%

**Q.** And the remaining binding at 10 µM [2]?
**A.** 0.35%

**Q.** What about the remaining binding at 10 µM [3] of the same molecule?
**A.** 5%

**Q.** And the remaining binding at 10 µM (JNK2)?
**A.** 0.7%

**Q.** What about the remaining binding at 10 µM (KIT(V559D)) of the same molecule?
**A.** 0%

**Q.** What about the remaining binding at 10 µM (LCK) of the same molecule?
**A.** 0.15%

**Q.** What about the remaining binding at 10 µM (LYN) of the same molecule?
**A.** 0.1%

**Q.** And the remaining binding at 10 µM (MAP3K1)?
**A.** 29%

**Q.** What about the remaining binding at 10 µM (MAP3K15) of the same molecule?
**A.** 8.4%

**Q.** And the remaining binding at 10 µM (MAP3K3)?
**A.** 1.3%

**Q.** What about the remaining binding at 10 µM (MINK) of the same molecule?
**A.** 3.6%

**Q.** What about the remaining binding at 10 µM (NEK4) of the same molecule?
**A.** 30%

**Q.** And the remaining binding at 10 µM (PRKCQ)?
**A.** 25%

**Q.** And the remaining binding at 10 µM (SIK)?
**A.** 0.35%

**Q.** And the remaining binding at 10 µM (SIK2)?
**A.** 21%

**Q.** And the remaining binding at 10 µM (SLK)?
**A.** 6.1%

**Q.** What about the remaining binding at 10 µM (SRC) of the same molecule?
**A.** 0.15%

**Q.** And the remaining binding at 10 µM (STK36)?
**A.** 1.6%

**Q.** What about the remaining binding at 10 µM (TAOK2) of the same molecule?
**A.** 15%

**Q.** What about the remaining binding at 10 µM (TAOK3) of the same molecule?
**A.** 29%

**Q.** What about the remaining binding at 10 µM (TIE1) of the same molecule?
**A.** 5.6%

**Q.** What about the percent of control binding at 10 µM (TIE2) of the same molecule?
**A.** 0.45%

**Q.** What about the remaining binding at 10 µM (TNK1) of the same molecule?
**A.** 12%

**Q.** And the remaining binding at 10 µM (p38-alpha)?
**A.** 0.1%
